Results published in patent US20250288645A1, “USE OF GsMTx4 AND GsMTx4 CONJUGATES TO IMPROVE RECOVERY FROM JOINT INJURY” (priority 2023, published 2025).
Entries after “also recorded” stand apart in the source; their conditions may differ. No end group written: not given here.

Columns and labels:
C57BL/6 mice = assay: Bilateral ACL-injury mouse model: knee histology, OARSI score; assay type: in vivo
Excerpt: Some of the studies reported below involved a murine model of animals which were subjected to trauma by injuring an ACL (as an exemplar of injury to any of the four knee ligaments). Without wishing to be bound by theory, it is believed that injury to the ACL changes the mechanical loading on the joint, promoting imbalanced metabolism in articular cartilage, and promoting the development of post-traumatic OA, or “PTOA.” Animals were divided into four cohorts: the first group, the controls, were not subjected to trauma, the second group underwent bilateral ACL injury, but no further treatment, the third group underwent bilateral ACL injury, and was then administered saline solution at days 3, 10 and 17 post-injury, and the fourth group underwent bilateral ACL injury, and was then administered GsMTx4 peptide at days 3, 10 and 17 post-injury. The animals were evaluated by gait analysis, a cell vulnerability assay, and a histological evaluation/immunofluorescence assay. In one aspect, the assays compared the expression of Piezo1 and Piezo2 in chondrocytes from injured joints, from uninjured controls, and from injured joints injured and then treated with GsMTx4 and from joints that were injured and then treated only with saline solution. The study also looked at calcitonin gene-related peptide (“CGRP”)-containing (“CGRP^+”) nerve endings. CGRP^+ nerves have been identified as principal coordinators of thermal and mechanical sensitivity in various pain models. See, e.g., Powell, et al., Nat Commun 12, 5812 (2021); doi.org/10.1038/s41467-021-26100-6.
Experiments were performed in a non-invasive ACL-injury mouse model. […] Both male and female mice were used in the four groups and results were tracked by gender as well as by group.
Animals in the ACL-injury groups were provided with buprenorphine as an analgesic, placed under anesthesia by isoflurane inhalation, and had the injuries induced with a custom-built strain gauge-instrumented device by applying axial force along the femoral shaft until a force drop was felt and a distinct “pop” sound was heard. […]

Piezo1 = assay: Bilateral ACL-injury mouse model: Piezo1 labeling (immunofluorescence); assay type: in vivo; settings: ACL-I mice, 3 weeks post-ACL-I, versus saline-treated ACL-I mice
Excerpt: Some of the studies reported below involved a murine model of animals which were subjected to trauma by injuring an ACL (as an exemplar of injury to any of the four knee ligaments). Without wishing to be bound by theory, it is believed that injury to the ACL changes the mechanical loading on the joint, promoting imbalanced metabolism in articular cartilage, and promoting the development of post-traumatic OA, or “PTOA.” Animals were divided into four cohorts: the first group, the controls, were not subjected to trauma, the second group underwent bilateral ACL injury, but no further treatment, the third group underwent bilateral ACL injury, and was then administered saline solution at days 3, 10 and 17 post-injury, and the fourth group underwent bilateral ACL injury, and was then administered GsMTx4 peptide at days 3, 10 and 17 post-injury. The animals were evaluated by gait analysis, a cell vulnerability assay, and a histological evaluation/immunofluorescence assay. In one aspect, the assays compared the expression of Piezo1 and Piezo2 in chondrocytes from injured joints, from uninjured controls, and from injured joints injured and then treated with GsMTx4 and from joints that were injured and then treated only with saline solution. The study also looked at calcitonin gene-related peptide (“CGRP”)-containing (“CGRP^+”) nerve endings. […]

mice = assay: Gait analysis after bilateral ACL injury; assay type: in vivo, mouse; settings: weekly subcutaneous injections, after 3 weeks
Procedure: This Example discusses studies in which mice were first divided into three groups: Group 1, control animals, were not injured, but were injected with GsMTx4, Group 2 mice were given a bilateral ACL injury in their hind legs, and then given weekly subcutaneous injections of saline, and (3) Group 3 mice were given a bilateral ACL injury in their hind legs, and then given weekly subcutaneous injections of GsMTx4.
After 3 weeks, the gait of the animals in each group was studied for the following metrics: hind paw stride length, hind paw average speed, hind paw swing speed, and step cycle.

chondrocytes = assay: Massive rotator cuff tear mouse model: chondrocyte mechano-vulnerability; assay type: in vivo; settings: rotator cuff injury, subcutaneous injection; versus contralateral control joint and saline-injected animals
Procedure: Ethical approval was obtained from the appropriate institutional committee Humeri were harvested from wild-type 12-22 week old C57Bl/6 male and female mice. Each specimen was placed in calcium imaging buffer with 2 mM calcium chloride and subsequently incubated with 10 μM calcein-AM for 30 minutes at 37° C. To indicate intracellular esterase activity of living cells, each specimen was incubated with 10 μM yoda1, a Piezo1-specific agonist, 5 nM GSK101, a TRPV4-agonist, or control (DMSO 0.25%, n=7-10/group) in calcium imaging buffer for 15 minutes. Specimens were then incubated with 1.5 nM ethidium homodimer-1 for 3 minutes to indicate loss of plasma membrane integrity in dead cells. The specimen was then arranged in a custom 3-D printed holding device such that the chondrocytes within the apex of sphericity of the humeral head were facing the glass well of a dish to be imaged on an inverted confocal microscope. […] A custom MATLAB image processing algorithm was developed to quantify cell viability. […] Then, watershed segmentation, distance transform, and centroid approximation algorithms were created and applied to segment and quantify individual cells based on intensity values. This facilitated the cell counting process, allowed quantification of the total cell area, and allowed adjustment of the region of interest between before- and after-impact micrographs. […]

Substance: GsMTx4 (GCLEFWWKCNPNDDKCCRPKLKCSKLFKLCNFSF-NH2; ends and bridges not checked; listed as Grammostola spatulata)
- OA severity (OARSI score) (C57BL/6 mice; ACL-I mice, GsMTx4 at days 3, 10, 17 post-injury, 3 weeks post-ACL-I, versus saline-treated ACL-I mice): reduced OARSI score; also recorded: decreased OA degrees significantly
- combined OARSI score for the femur and the tibia (FIG. 2B) (C57BL/6 mice; bilateral ACL injury, subcutaneous injection, versus not treated or saline-treated animals): much lower OARSI score
- cartilage on femur and tibia (histology, FIG. 2A) (C57BL/6 mice; bilateral ACL injury, versus saline-injected mouse (cartilage severely eroded and disrupted)): still a layer of cartilage almost all of the femur and tibial surface
- Piezo1-labeling in chondrocytes and nerves in subchondral bones (Piezo1): reduced Piezo1-labeling in chondrocytes and nerves in subchondral bones
- gait (hind paw stride length, hind paw average speed, hind paw swing speed, step cycle; FIG. 3) (mice): the same or almost the same as that of mice that had not had an ACL injured
- chondrocyte vulnerability (chondrocytes): reduction in chondrocyte vulnerability
